System: multi-cancer cell line panel
Experiment: OncoPanel cytotoxicity assay, whole panel summary
Type: cell-based, human
Description: This Example describes an evaluation of the effect of a representative small molecule MDM2i on the growth of cells in a multi-cancer cell line panel. In this Example, the MDM2 inhibitors used were Compound A and Compound B p-toluenensulfonate. The panel included 250 human cancer cell lines (OncoPanel™, Ricerca Biosciences, Painesville, Ohio) that were evaluated in a high content drug screening analysis. The relative IC50 values for the cell lines were determined.
Cells were grown in RPMI 1640, 10% FBS, 2 mM L-alanyl-L-Glutamine, 1 mM Na Pyruvate, or a special medium in a humidified atmosphere of 5% CO2 at 37° C. Cells were seeded into 384-well plates and incubated in a humidified atmosphere of 5% CO2 at 37° C. Test compounds were added 24 hours post cell seeding. […]
Compounds were serially diluted 3.16-fold and assayed over 10 concentrations of inhibitor in a final assay concentration of 0.1% DMSO from the highest test concentration specified in the sample information chapter. Automated fluorescence microscopy was carried out using a GE Healthcare InCell Analyzer 1000, and images were collected with a 4×objective. Twelve bit tiff images were acquired using the InCell Analyzer 1000 3.2 and analyzed with Developer Toolbox 1.6 software.
Cell proliferation was measured by the signal intensity of the incorporated nuclear dye. […]

Compound: CC[C@@H]1CNC2(CC2)CN1C(=O)[C@@H]1C[C@@H](F)CN1C(=O)C1=C(C(C)C)N2C(=N[C@@](C)(c3ccc(Cl)nc3)[C@H]2c2ccc(Cl)c(F)c2)S1 [Compound A, [(5R,6S)-5-(4-Chloro-3-fluorophenyl)-6-(6-chloropyridin-3-yl)-6-methyl-3-(propan-2-yl)-5,6-dihydroimidazo[2,1-b][1,3]thiazol-2-yl][(2S,4R)-2-{[(6R)-6-ethyl-4,7-diazaspiro[2.5]oct-7-yl]carbonyl}-4-fluoropyrrolidin-1-yl]methanone]
- share of the cell lines with IC50 values of <1 μM: Approximately 25%
- share of the cell lines with IC50 values of >10: approximately 70%

Reference: US20170283885A1, “ALGORITHMS FOR GENE SIGNATURE-BASED PREDICTOR OF SENSITIVITY TO MDM2 INHIBITORS” (DAIICHI SANKYO COMPANY, LIMITED, priority 2014, published 2017)
